In ChEMBL document CHEMBL6103622 (J Med Chem, 2025):
The source made the active and inactive calls. No cut-off for these calls is given here.

Tests used:
MC-38 [1] = assay: Antitumor activity against mouse MC38 cells allografted in C57BL/6 mouse model assessed as reduction in tumor weight at 10 to 20 mg/kg, ip administered once daily for 14 days; format: functional, organism-based; details: dose 10-20 mg/kg, time 14.0 day
MC-38 [2] = assay: Antitumor activity against mouse MC38 cells allografted in C57BL/6 mouse model assessed as downregulation of Mrc1 mRNA expression in tumor at 10 to 20 mg/kg, ip administered once daily for 14 days by qPCR analysis; format: functional, organism-based; details: dose 10-20 mg/kg, time 14.0 day
BMDM [3] = assay: Induction of repolarization of M2 like macrophage into M1 phenotype in female C57BL/6 mouse BMDM cells assessed as decrease in Rental mRNA expression at 10 to 100 nM stimulated with mouse IL4/IL-13 for 24 hrs followed by compound addition and measured after 24 hrs by qPCR analysis; format: functional, cell-based; details: dose 10-100 nM
[4] = target: T1, Macrophage colony-stimulating factor 1 receptor (Mus musculus) (UniProt P09581); assay: Induction of thermal stabilization of CSF-1R in female C57BL/6 mouse BMDM cells assessed as increase in melting temperature at 100 nM incubated for 1 hrs under 52 to 68 degreeC by CETSA; format: cell-based
T1 sequence (whole entry): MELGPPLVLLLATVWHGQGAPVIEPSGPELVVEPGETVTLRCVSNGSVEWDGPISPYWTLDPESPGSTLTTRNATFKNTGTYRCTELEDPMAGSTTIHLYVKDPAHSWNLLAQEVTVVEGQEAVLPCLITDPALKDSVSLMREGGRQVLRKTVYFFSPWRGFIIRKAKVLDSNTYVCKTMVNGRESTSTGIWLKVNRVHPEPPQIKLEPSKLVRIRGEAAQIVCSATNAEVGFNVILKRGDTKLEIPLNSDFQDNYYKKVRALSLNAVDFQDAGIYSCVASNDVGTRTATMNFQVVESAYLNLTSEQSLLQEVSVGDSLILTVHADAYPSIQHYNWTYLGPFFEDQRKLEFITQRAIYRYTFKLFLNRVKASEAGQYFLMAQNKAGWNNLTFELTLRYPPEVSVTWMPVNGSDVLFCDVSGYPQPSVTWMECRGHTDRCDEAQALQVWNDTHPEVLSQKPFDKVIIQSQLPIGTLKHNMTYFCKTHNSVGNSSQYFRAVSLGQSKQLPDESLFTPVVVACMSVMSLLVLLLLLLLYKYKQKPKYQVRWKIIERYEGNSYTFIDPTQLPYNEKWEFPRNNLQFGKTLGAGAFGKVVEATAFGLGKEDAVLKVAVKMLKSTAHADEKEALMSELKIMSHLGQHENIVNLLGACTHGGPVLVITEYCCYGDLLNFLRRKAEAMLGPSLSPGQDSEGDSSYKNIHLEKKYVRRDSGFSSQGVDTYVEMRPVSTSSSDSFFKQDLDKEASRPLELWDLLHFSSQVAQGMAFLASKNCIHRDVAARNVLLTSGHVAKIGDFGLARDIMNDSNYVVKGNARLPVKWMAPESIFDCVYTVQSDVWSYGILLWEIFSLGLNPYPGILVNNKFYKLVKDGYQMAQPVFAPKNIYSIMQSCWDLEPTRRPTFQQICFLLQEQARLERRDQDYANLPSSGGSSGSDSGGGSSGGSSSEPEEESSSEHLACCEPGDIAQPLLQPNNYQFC

BMDM [5] = assay: Induction of repolarization of M2 like macrophage into M1 phenotype in female C57BL/6 mouse BMDM cells assessed as decrease in Mrc1 mRNA expression at 10 to 100 nM stimulated with mouse IL4/IL-13 for 24 hrs followed by compound addition and measured after 24 hrs by qPCR analysis; format: functional, cell-based; details: dose 10-100 nM
[6] = target: T1, Macrophage colony-stimulating factor 1 receptor (Mus musculus); assay: Inhibition of CSF-1R signaling pathway activation in female C57BL/6 mouse BMDM cells assessed as reduction in CSF-1R phosphorylation at Tyr723 residue at 100 nM preincubated with compounds for 4 hrs followed by M-CSF stimulation and measured after 30 mins by Western blot analysis; format: cell-based; details: time 4.5 hrs
MC-38 [7] = assay: Antitumor activity against mouse MC38 cells allografted in C57BL/6 mouse model assessed as upregulation of Tnf mRNA expression in tumor at 10 to 20 mg/kg, ip administered once daily for 14 days by qPCR analysis; format: functional, organism-based; details: dose 10-20 mg/kg, time 14.0 day
[8] = target: Macrophage colony-stimulating factor 1 receptor (Homo sapiens, UniProt P07333); assay: Inhibition of CSF-1R (unknown origin) at 1 uM
Macrophage colony-stimulating factor 1 receptor, sequence (P07333 whole entry): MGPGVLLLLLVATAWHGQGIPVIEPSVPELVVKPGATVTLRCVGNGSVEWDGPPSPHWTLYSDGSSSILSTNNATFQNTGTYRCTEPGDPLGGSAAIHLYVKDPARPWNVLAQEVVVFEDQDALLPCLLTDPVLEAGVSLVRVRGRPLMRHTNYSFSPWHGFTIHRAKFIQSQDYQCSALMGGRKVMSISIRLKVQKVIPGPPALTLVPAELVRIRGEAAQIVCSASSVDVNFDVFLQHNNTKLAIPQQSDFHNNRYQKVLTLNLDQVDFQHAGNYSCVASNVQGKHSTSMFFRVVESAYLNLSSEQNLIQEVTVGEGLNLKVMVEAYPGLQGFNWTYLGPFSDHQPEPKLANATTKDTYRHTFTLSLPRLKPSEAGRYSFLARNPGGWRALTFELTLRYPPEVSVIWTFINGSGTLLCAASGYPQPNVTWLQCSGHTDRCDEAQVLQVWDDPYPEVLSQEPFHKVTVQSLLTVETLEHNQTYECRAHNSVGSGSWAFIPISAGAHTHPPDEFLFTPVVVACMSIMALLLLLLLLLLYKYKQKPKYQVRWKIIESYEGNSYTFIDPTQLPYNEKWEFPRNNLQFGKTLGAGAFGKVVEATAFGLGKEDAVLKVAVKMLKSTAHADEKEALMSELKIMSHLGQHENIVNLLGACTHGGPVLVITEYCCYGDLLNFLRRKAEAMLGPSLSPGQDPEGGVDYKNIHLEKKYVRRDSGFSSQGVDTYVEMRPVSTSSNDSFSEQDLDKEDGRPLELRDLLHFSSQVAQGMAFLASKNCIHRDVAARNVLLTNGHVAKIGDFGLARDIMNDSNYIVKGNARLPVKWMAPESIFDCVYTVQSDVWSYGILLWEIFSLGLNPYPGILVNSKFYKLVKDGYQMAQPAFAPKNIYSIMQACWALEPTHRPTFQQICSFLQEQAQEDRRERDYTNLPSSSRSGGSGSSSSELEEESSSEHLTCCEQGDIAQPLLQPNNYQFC

MC-38 [9] = assay: Antitumor activity against mouse MC38 cells allografted in C57BL/6 mouse model assessed as reduction in tumor volume at 10 mg/kg, ip administered once daily for 14 days relative to control; format: functional; set-up: scale not given: the % may be the effect or the level left; details: time 14 day
[10] = AUC (0 to t) in Sprague-Dawley rat at 10 mg/kg, po; format: ADME, organism-based; details: in vivo
MC-38 [11] = assay: Induction of apoptosis in mouse MC38 cells assessed as early apoptotic cells at 30 nM by Annexin V/PI staining based flow cytometric analysis (reference value: 1.91 %); format: functional
MC-38 [12] = assay: Antitumor activity against mouse MC38 cells allografted in C57BL/6 mouse model assessed as reduction in tumor volume at 10 to 20 mg/kg, ip administered once daily for 14 days; format: functional, organism-based; details: dose 10-20 mg/kg, time 14.0 day
MC-38 [13] = assay: Induction of apoptosis in mouse MC38 cells cocultured with condition medium of M2 macrophages assessed as early apoptotic cells at 30 nM by Annexin V/PI staining based flow cytometric analysis (reference value: 3.16 %); format: functional
MC-38 [14] = assay: Induction of apoptosis in mouse MC38 cells cocultured with condition medium of M2 macrophages assessed as late apoptotic cells at 100 nM by Annexin V/PI staining based flow cytometric analysis (reference value: 1.66 %); format: functional
MC-38 [15] = assay: Antitumor activity against mouse MC38 cells allografted in C57BL/6 mouse model assessed as upregulation of Nos2 mRNA expression in tumor at 10 to 20 mg/kg, ip administered once daily for 14 days by qPCR analysis; format: functional, organism-based; details: dose 10-20 mg/kg, time 14.0 day
MC-38 [16] = assay: Inhibition of cell proliferation in mouse MC38 cells at 10 to 100 nM incubated for 20 hrs by CCK8 assay; format: functional, cell-based; details: dose 10-100 nM
[17] = Cmax in Sprague-Dawley rat at 10 mg/kg, po; format: ADME, organism-based; details: in vivo
[18] = target: T1, Macrophage colony-stimulating factor 1 receptor (Mus musculus); assay: Inhibition of CSF-1R signaling pathway activation in female C57BL/6 mouse BMDM cells assessed as reduction in AKT phosphorylation preincubated with compounds for 4 hrs followed by M-CSF stimulation and measured after 30 mins by Western blot analysis; format: cell-based; details: dose 10-100 nM, time 4.5 hrs
MC-38 [19] = assay: Antitumor activity against mouse MC38 cells allografted in C57BL/6 mouse model assessed as upregulation of Il1 mRNA expression in tumor at 10 to 20 mg/kg, ip administered once daily for 14 days by qPCR analysis; format: functional, organism-based; details: dose 10-20 mg/kg, time 14.0 day
[20] = AUC (0 to infinity) in Sprague-Dawley rat at 10 mg/kg, po; format: ADME, organism-based; details: in vivo
[21] = target: BDNF/NT-3 growth factors receptor (Homo sapiens) (UniProt Q16620); assay: Inhibition of TRKB (unknown origin) at 1 uM
BDNF/NT-3 growth factors receptor (Homo sapiens), sequence (Q16620 32-822 limits assumed): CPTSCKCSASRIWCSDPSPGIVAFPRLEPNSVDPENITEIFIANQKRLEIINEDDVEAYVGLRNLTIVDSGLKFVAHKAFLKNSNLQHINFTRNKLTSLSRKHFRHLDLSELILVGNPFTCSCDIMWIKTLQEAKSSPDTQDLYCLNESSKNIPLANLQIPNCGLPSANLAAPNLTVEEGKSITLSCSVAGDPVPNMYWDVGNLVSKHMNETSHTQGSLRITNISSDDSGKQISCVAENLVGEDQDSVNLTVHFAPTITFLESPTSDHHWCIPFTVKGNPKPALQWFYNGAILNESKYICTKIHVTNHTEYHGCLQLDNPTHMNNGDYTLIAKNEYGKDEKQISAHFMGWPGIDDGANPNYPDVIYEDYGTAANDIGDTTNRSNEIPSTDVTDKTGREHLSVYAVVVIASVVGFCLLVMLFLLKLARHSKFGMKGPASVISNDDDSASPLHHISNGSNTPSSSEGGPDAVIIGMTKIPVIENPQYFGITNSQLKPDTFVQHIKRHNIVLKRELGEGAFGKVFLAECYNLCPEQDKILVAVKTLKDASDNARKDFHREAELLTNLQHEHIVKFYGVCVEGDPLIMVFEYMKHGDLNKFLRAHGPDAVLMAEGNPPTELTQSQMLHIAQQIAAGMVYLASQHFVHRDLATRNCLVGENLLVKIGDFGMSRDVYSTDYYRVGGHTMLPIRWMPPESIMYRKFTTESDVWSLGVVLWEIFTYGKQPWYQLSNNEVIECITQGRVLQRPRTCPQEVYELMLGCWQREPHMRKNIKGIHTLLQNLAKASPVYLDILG

BMDM [22] = assay: Induction of repolarization of M2 like macrophage into M1 phenotype in female C57BL/6 mouse BMDM cells assessed as increase in Nos2 mRNA expression at 10 to 100 nM stimulated with mouse IL4/IL-13 for 24 hrs followed by compound addition and measured after 24 hrs by qPCR analysis; format: functional, cell-based; details: dose 10-100 nM

SMILES: Cc1nc(NC(=O)N[C@@H]2CCCC[C@H]2O)ccc1Oc1c[nH]c2ncc(Cl)cc12
- Activity (MC-38 [1]): Active; Lower Tumor Weight Observed Than That Of Plx3397 Treated Group
- Activity (MC-38 [2]): Active
- Activity (BMDM [3]): Active
- Activity [4]: Active
- Activity (BMDM [5]): Active
- inhibition [6]: Active
- Activity (MC-38 [7]): Active
- inhibition [8]: Active
- Activity (MC-38 [9]): 38%
- AUC(0-t) [10]: 4170 ng·h/mL
- Activity (MC-38 [11]): 1.71%
- Activity (MC-38 [12]): Active; Better Activity Observed Than Plx3397-Treated Group
- Activity (MC-38 [13]): 13.61%
- Activity (MC-38 [14]): 5.67%
- Activity (MC-38 [15]): Active
- inhibition (MC-38 [16]): Minimal_effect
- Cmax [17]: 1580 ng/mL
- inhibition [18]: Dose-dependent-effect
- Activity (MC-38 [19]): Active
- AUC(0-inf) [20]: 4170 ng·h/mL
- inhibition [21]: Active
- Activity (BMDM [22]): Active
